Test results published in patent publication US20020076412A1, “METHODS FOR MODULATING THE IMMUNE SYSTEM” (priority 1987, published 2002).
Values joined by “and” are separate entries in the source; they are usually repeats but may differ in a detail not shown here. Equal entries are not always repeated. “Also recorded” adds a separate entry of the source.

What was measured:
EAE (RAT) [1] = test: Prevention of EAE, competitor mixed with native peptide 5:1 in CFA; assay type: in vivo; conditions: sick/total; competitor plus native peptide 5:1 molar ratio in CFA; native line = native peptide alone
Method: (§1) The peptides were tested for their ability to cause EAE when mixed in CFA. […] It was seen that Ala4, Ala6, Ala7, and Ala8 are poor binders to I-E, implying that these residues 4F,6N,7I, and 8V are critical in MHC binding. […] Despite their inability to bind well to I-E, peptides ala6 and ala8 block the development of EAE when mixed with native peptide in a 5:1 molar ratio with CFA (0/6 sick with native plus ala6, 2/6 with native plus ala8, compared to 11/12 with native peptide alone). These competitor peptides Ala6 and Ala8, though poor I-E binders can apparently compete with native peptide and antagonize the T-cell receptor.

EAE = test: Competition with Ala6 and Ala5 for prevention of EAE with MBP (Table 3); assay type: in vivo, mice
Method: Incidence of EAE was expressed as number of mice with clinical EAE/number of mice immunized. For the induction of EAE, MBP peptide was dissolved in phosphate buffered saline (PBS) and emulsified with complete Freund's adjuvant (CFA) in a 1:1 mixture of PBS and CFA. Mice were injected with 0.2 ml emulsion at the base of the tail. On the same day and 48 h later, pertussis toxin (List Chemicals, Campbell, Calif.) was injected intravenously. Mice were examined daily for signs of EAE. For prevention of EAE, animals were immunized with MBP (0.2 mg), or in a mixture with the competitor peptide (1 mg).

87-99 T-cell line [2] = test: Competition assay for T-cell proliferation with native peptide; assay type: cell-based, Lewis rat; conditions: blocking of proliferation of 87-99 T-cell line when given with native peptide in vitro
Method: The second assay is a competition assay for T-cell proliferation. In this assay, antigen presenting spleen cells are first irradiated and then incubated with native MBP peptide for 2-4 hours. These cells are then washed and further cultured with T-cells reactive to MBP. Various concentrations of candidate peptide analogues are included in cultures for an additional 3 days. Following this incubation period, each culture is pulsed with 1 μCi of [^3H]-thymidine for an additional 12-18 hours. Cultures are then harvested on fiberglass filters and counted as above. Mean CPM and standard error of the mean are calculated from data determined in triplicate cultures. Peptide analogues which inhibit proliferation to approximately 25% at a concentration of 50 μM or greater are suitable for further screening.
(§2) Proliferation Assay: Proliferative responses were determined as described previously (Zamvil, et al., Nature 317:355, 1985). 1×10^4 T-cells were cultured with 5×10^5 X-irradiated (3,000 rad) PL/J splenic APC in 0.2 ml of culture media in 96 well flat-bottomed microtiter plates (Falcon, 3072). Peptides were added to culture giving the final concentrations indicated. At 48 hours incubation, each well was pulsed with 1 μCi ^3H-thymidine and harvested 16 hours later. The mean c.p.m. thymidine incorporation was calculated for triplicate cultures. Standard deviations from replicate cultures were within 10% mean value. Proliferation assays were performed in 96-well microtiter plates. Briefly, 2×10^4 T-cells and 10^6 irradiated thymocytes/well were incubated with stimulation medium only, Con A, or antigen. The cultures were harvested onto glass fiber filters and TdR uptake was assessed by liquid scintillation. Mean cpm were calculated from triplicate wells. In some experiments, competitor peptides, or anti I-A (OX-6) or anti-I-E antibodies (OX-17) were used to evaluate which MHC molecules were used to restrict the T-cell response, or to determine whether peptides could antagonize stimulation by the native peptide.
as §1

87-99 T-cell line [3] = test: Proliferation of encephalitogenic T-cell line raised against native peptide (87-99); assay type: cell-based, rat; conditions: stimulation of T-cell line raised against native 87-99; grades negative to 4+, key not given
Method: As noted above, candidate peptide analogues are first tested for their property of causing or inhibiting proliferation of T-cell lines. In the proliferation assay, MBP reactive T-cell lines may be used as target cells. T-cell lines are established from lymph nodes taken from rats injected with MBP. Lymph node cells are isolated and cultured for 5 to 8 days with MBP and IL-2 as a source of T-cell growth factors. Viable cells are recovered and a second round of stimulation is performed with MBP and irradiated splenocytes as a source of growth factors. After 5 to 6 passages in this manner, the proliferative potential of the cell lines are determined. MBP-reactive lines are used in the proliferation assay. In this assay, T-cell lines are cultured for three days with various concentrations of peptide analogues and irradiated, autologous splenocytes. After three days, 0.5-1.0 μCi of [^3H]-thymidine is added for 12-16 hours. Cultures are harvested and incorporated counts determined. Mean CPM and standard error of the mean are calculated from triplicate cultures.
Development of MBP-specific T-cell lines in the rat: T-cell lines are selected from LN or SC (spinal cords) of rats immunized with guinea pig myelin basic protein or with MBP peptide (200 μg) in CFA. Supernatants from ConA-stimulated Lewis rat splenocytes are used as the source of IL-2 to expand Ag-stimulated T-cells.
as §2

EAE (RAT) [4] = test: Ability of peptide mixed in CFA to cause EAE; assay type: in vivo; conditions: rats with EAE / rats immunized with the peptide alone in CFA
Method: as §1

I-E = test: MHC I-E binding of substituted MBP 87-99 peptides; design: species or system rat; conditions: for IC50: read-out: (M*C) IC50 I-E Binding
Description: A set of substituted peptides based on the sequence VHFFKNIVTPRT (Seq. ID No. 39), which is identical in rats, mice and human myelin basic protein (MBP), and corresponds to the I-E restricted epitope MBP 87-99 in the rat was produced. The peptides are shown in Table 1 (Seq. ID Nos. 39 to 52 respectively) MHC binding was measure say described in Smilek et al, 1991, Gautam et al 1992a&b.

CTL = CTL assay with substituted peptides; assay type: cell-based
MS patients = conditions: cited from earlier work

| binding to I-E / MHC (in words) (I-E) | IC50 (I-E) | Molecule | EAE (RAT) (EAE (RAT) [1]) | Comp Assay Prolif (RAT) (87-99 T-cell line [2]) | Prolif. (87-99 T-cell line [3]) | EAE (RAT) (EAE (RAT) [4]) | CTL (CTL) | other results |
| --- | --- | --- | --- | --- | --- | --- | --- | --- |
| poor binders | > 200 µM | CC[C@H](C)[C@H](NC(=O)[C@H](CC(N)=O)NC(=O)[C@H](CCCCN)NC(=O)[C@H](Cc1ccccc1)NC(=O)[C@H](Cc1ccccc1)NC(=O)[C@H](Cc1c[nH]cn1)NC(=O)[C@@H](N)C(C)C)C(=O)N[C@@H](C)C(=O)N[C@H](C(=O)N1CCC[C@H]1C(=O)N[C@@H](CCCNC(=N)N)C(=O)N[C@H](C(=O)N1CCC[C@H]1C(=O)O)[C@@H](C)O)[C@@H](C)O [Ala 8] | 2/6 | plus | weakly stimulate | 1/15 | plus | Comp Assay Prolif (RAT) (87-99 T-cell line [2]; listed as Ala8): can block proliferation; EAE (RAT) (EAE (RAT) [4]; listed as Ala8): incapable of causing EAE |
|  | 14 µM | CC[C@H](C)[C@H](NC(=O)[C@H](CC(N)=O)NC(=O)[C@H](CCCCN)NC(=O)[C@H](Cc1ccccc1)NC(=O)[C@H](Cc1ccccc1)NC(=O)[C@H](Cc1c[nH]cn1)NC(=O)[C@@H](N)C(C)C)C(=O)N[C@H](C(=O)N[C@H](C(=O)N1CCC[C@H]1C(=O)N[C@@H](CCCNC(=N)N)C(=O)N[C@H](C(=O)N1CCC[C@H]1C(=O)O)[C@@H](C)O)[C@@H](C)O)C(C)C [native, reference compound] | 11/12 | MINUS |  | 21/21 | nega- | Incidence of EAE (EAE; peptide alone 0.2 mg in CFA, number with clinical EAE/number immunized, listed as Native MBP Peptide): 11/12 and 6/6 |

Second part, the molecule before the results:

| Molecule | binding to I-E / MHC (in words) (I-E) | IC50 (I-E) | EAE (RAT) (EAE (RAT) [1]) | Comp Assay Prolif (RAT) (87-99 T-cell line [2]) | Prolif. (87-99 T-cell line [3]) | EAE (RAT) (EAE (RAT) [4]) | CTL (CTL) | other results |
| --- | --- | --- | --- | --- | --- | --- | --- | --- |
| CC[C@H](C)[C@H](NC(=O)[C@H](C)NC(=O)[C@H](CCCCN)NC(=O)[C@H](Cc1ccccc1)NC(=O)[C@H](Cc1ccccc1)NC(=O)[C@H](Cc1c[nH]cn1)NC(=O)[C@@H](N)C(C)C)C(=O)N[C@H](C(=O)N[C@H](C(=O)N1CCC[C@H]1C(=O)N[C@@H](CCCNC(=N)N)C(=O)N[C@H](C(=O)N1CCC[C@H]1C(=O)O)[C@@H](C)O)[C@@H](C)O)C(C)C [Ala 6] | poor binders; also recorded: poor MHC binder | > 200 µM | 0/6 | plus | weakly stimulate | 0/21 |  | Incidence of EAE (EAE; native MBP peptide 0.2 mg mixed with competitor peptide 1 mg): completely prevented the clinical development of EAE; Incidence of EAE (EAE; native MBP peptide 0.2 mg mixed with competitor peptide 1 mg, listed as ala 6): 0/6; Incidence of EAE (EAE; peptide alone 0.2 mg in CFA, number with clinical EAE/number immunized): 0/6; Comp Assay Prolif (RAT) (87-99 T-cell line [2]; listed as Ala6): can block proliferation; EAE (RAT) (EAE (RAT) [4]; listed as Ala6): incapable of causing EAE |
| CC(C)[C@H](N)C(=O)N[C@@H](Cc1c[nH]cn1)C(=O)N[C@@H](Cc1ccccc1)C(=O)N[C@@H](Cc1ccccc1)C(=O)N[C@@H](CCCCN)C(=O)N[C@@H](CC(N)=O)C(=O)N[C@@H](C)C(=O)N[C@H](C(=O)N[C@H](C(=O)N1CCC[C@H]1C(=O)N[C@@H](CCCNC(=N)N)C(=O)N[C@H](C(=O)N1CCC[C@H]1C(=O)O)[C@@H](C)O)[C@@H](C)O)C(C)C [Ala 7] | poor binders | > 200 µM |  |  |  | 6/6 | plus |  |
| IFN-γ: cytokine administered in a pilot study to alleviate symptoms of MS |  |  |  |  |  |  |  | specific response to MBP (MS patients; in vivo): increase |
| IFN-γ: cytokine administered in a pilot study to alleviate symptoms of MS (protein, UniProt P01579 24-161, looked up) Interferon gamma: QDPYVKEAENLKKYFNAGHSDVADNGTLFLGILKNWKEESDRKIMQSQIVSFYFKLFKNFKDDQSIQKSVETIKEDMNVKFFNSNKKKRDDFEKLTNYSVTDLNVQRKAIHELIQVMAELSPAAKTGKRKRSQMLFRG |  |  |  |  |  |  |  | patients with clinical exacerbation (MS patients; within one month after initiation of treatment): 7 of 18 |
